Measured values published in article PMC9102404, “Cationic N,N-Dimethylglycine Ester Prodrug of 2R-α-Tocotrienol Promotes Intestinal Absorption via Efficient Self-Micellization with Intrinsic Bile Acid Anion” (Molecules, 2022).
Counter-ions that a name gives are not always drawn.

Experiments:
[1] = Particle size distribution, z-potential and pH of aqueous solutions of α-T3DMG with or without TCA; type: physicochemical
Method: The fitting curves were obtained by the plateau model using GraphPad Prism to indicate a smoothing curve connecting each point. The z-average with PDI and the z-potential of the aqueous solution of α-[…] with or without TCA, as described in Section 4.7.1, were determined using a Zetasizer Nano ZS (MALVERN, Worcestershire, UK). Measurements were independently performed three times for each sample. The pH of the aqueous solution of α-[…] with or without TCA is described in Section 4.7.1. It was measured using a LAQUAtwin pH-11 pocket water quality meter (HORIBA, Ltd., Kyoto, Japan).

[2] = Plasma α-T3 pharmacokinetics after gastrostomy administration in bile duct-ligated rats; type: in vivo, rat
Method: The SD rats were fasted for 16 h, and they were provided drinking water ad libitum prior to the administration of the test compounds. The rats were administered three types of mixed anesthetic agents (medetomidine, midazolam, and butorphanol) under isoflurane anesthesia. To avoid the influence of intrinsic bile flow on intestinal absorption, a catheter was inserted into the bile ducts of the rats. The catheter was ligated with strings, and intrinsic bile flow was excluded. This animal model was referred to in an animal experimental book in Japanese, titled in English as, “An atlas of experimental animal technology” published in 1998; this method is very similar to that described in Figure 5 of Jaber et al..
Dosing solutions were prepared as follows: (i) 5.88 mmol/L α-T3DMG and 5.88 mmol/L TCA in water (α-T3DMG:TCA = 1:1), (ii) 5.88 mmol/L α-T3DMG and 11.76 mmol/L TCA in water (α-T3DMG:TCA = 1:2), and (iii) 5.88 mmol/L α-T3 and 11.76 mmol/L TCA in water (α-T3:TCA = 1:2). The α-T3 was dispersed in silica powder in ethanol, and the solvent was removed in vacuo prior to dispersion in water. The ligated rats were administered […] of α-T3DMG or α-T3 via gastrostomy. The doses were 12.5 mg/kg of body weight equivalent for α-T3.
Blood samples (200 µL) were collected from the external jugular vein under isoflurane anesthesia using heparinized syringes at 0.5, 1, 2, 3, 4, 6, 8, and 24 h. […]

[3] = Enzymatic hydrolysis of α-T3 esters in rat plasma; type: in vitro ADME; details: pH 7.4, 37 °C, Michaelis–Menten fit
Water solubility = type: physicochemical; details: distilled water, 25 ± 1 °C, shaken 3 h
Method: The aqueous solubility of each ester was determined by adding 50 μmol of each compound to 1 mL of distilled water in amber test tubes and incubating the tubes at 25 ± 1 °C in a constant-temperature water bath. The test tubes were shaken for 3 h, and the suspensions were filtered using a membrane filter (MF-Millipore™ Membrane Filter, 0.45 µm pore size, Merck KGaA, Darmstadt, Germany). The filtered media, including α-T3DMG, was assayed using the liquid chromatography (LC)-MS/MS method described in Section 4.8.

Stability in water = type: physicochemical
[4] = Appearance of aqueous solutions of α-T3DMG with or without TCA; type: physicochemical
Method: A stock solution of α-T3DMG was prepared in milliQ and combined with different concentrations of taurocholic acid (TCA) aqueous solution to the final molar ratios (α-T3DMG/TCA = 1/0.1–4). The fitting curves were obtained by the plateau model using GraphPad Prism to indicate a smoothing curve connecting each point.

[5] = Enzymatic hydrolysis of α-T3 esters in rat liver microsomes; type: in vitro ADME; details: rat liver microsome, pH 7.4, 37 °C, Michaelis–Menten fit; for Km: liver microsomes
Method: The hydrolysis of esters was analyzed at 37 °C in phosphate-buffered saline (PBS) containing commercially available rat liver microsomes (In Vitro Technologies, Inc., Baltimore, MD, USA). The microsomes (20 mg/mL) were adjusted to a protein concentration of 0.11 mg/mL and preincubated at 37 °C for 5 min before adding the esters.
Stock solutions of the esters were prepared in a 5% methanol aqueous solution. Enzymatic reactions were initiated by adding 50 µL ester stock solution (final concentration 50–800 μmol/L) and 50 μL PBS to 900 µL preheated reaction medium containing rat liver microsomes in amber test tubes. These reactions were incubated at 37 °C; and, at various times, 100 μL aliquots were removed and mixed with 350 µL ethanol. Samples were then vortexed for 2 min and centrifuged at 1750 g for 5 min. The aliquot was analyzed using the LC-MS/MS system described in Section 4.8. The initial hydrolytic rate (μmol/L α-T3 formed per min) was calculated from the initial slope of the plot of α-T3 concentration versus time.

[6] = Distribution of α-T3DMG to n-octanol and water phases; type: physicochemical; details: increasing TCA molar ratio
Method: The fitting curves were obtained by the plateau model using GraphPad Prism to indicate a smoothing curve connecting each point. The prepared solutions described in Section 4.7.1 were combined with the same volume of n-octanol and then vortexed for 2 min. The solutions were then centrifuged at 20,600× g for 20 min. The upper layer (n-octanol) and the lower layer (water) were collected, diluted with ethanol, and subjected to LC-MS/MS, as described in Section 4.7.

[7] = Toxicity observation in the in vivo study; details: bile duct-ligated rats, 12.5 mg/kg α-T3 equivalent, gastrostomy
[8] = Effect of eserine (esterase inhibitor) on ester hydrolysis in rat liver microsomes; type: in vitro ADME; details: eserine 0–2.0 mmol/L
Method: The effects of eserine on α-T3DMG hydrolysis in rat liver microsomes were also examined using similar methods, with 50 µL eserine aqueous solution instead of PBS, added to the mixtures with liver microsomes. Eserine was tested at 0–2.0 mmol/L.

[9] = 5.88 mmol/L α-T3DMG, TCA molar ratio 0
[10] = 5.88 mmol/L α-T3DMG, TCA molar ratio 0.3
[11] = 5.88 mmol/L α-T3DMG, TCA molar ratio 0.9
[12] = 5.88 mmol/L α-T3DMG, TCA molar ratio 1
[13] = 5.88 mmol/L α-T3DMG, TCA molar ratio 1.5
[14] = 5.88 mmol/L α-T3DMG, TCA molar ratio 3
[15] = 5.88 mmol/L α-T3DMG, TCA molar ratio 4
[16] = 23.52 mmol/L α-T3DMG, TCA molar ratio 0
[17] = 23.52 mmol/L α-T3DMG, TCA molar ratio 0.3
[18] = 23.52 mmol/L α-T3DMG, TCA molar ratio 1.5
[19] = 23.52 mmol/L α-T3DMG, TCA molar ratio 3
[20] = 23.52 mmol/L α-T3DMG, TCA molar ratio 4

CNCC(=O)Oc1c(C)c(C)c2c(c1C)CC[C@@](C)(CC/C=C(\C)CC/C=C(\C)CCC=C(C)C)O2 (as salt: hydrochloride) [α-T3MG, 2R-α-Tocotrienyl N-methylglycinate]
melting point: 170 to 173 °C

C[C@H](CCC(=O)NCCS(=O)(=O)O)[C@H]1CC[C@H]2[C@@H]3[C@H](O)C[C@@H]4C[C@H](O)CC[C@]4(C)[C@H]3C[C@H](O)[C@]12C [TCA, taurocholic acid, reference compound]
z-potential ([1]; TCA without α-T3DMG in water, 23.52 mmol/L): −38.9 ± 1.9 mV

CC(C)=CCC/C(C)=C/CC/C(C)=C/CC[C@]1(C)CCc2c(C)c(O)c(C)c(C)c2O1 [α-T3, 2R-α-Tocotrienol]
plasma α-T3 levels after postprandial (TCA 1:2) administration of α-T3 compared with fasting (TCA 1:1) administration of α-T3DMG ([2]; gastrostomy, Supplementary Figure S2): similar

CC(C)=CCC/C(C)=C/CC/C(C)=C/CC[C@]1(C)CCc2c(C)c(OC(=O)CN(C)C)c(C)c(C)c2O1 [α-T3DMG, 2R-α-Tocotrienyl N,N-dimethylglycinate hydrochloride]
Km [3]: 664 µM | Vmax [3]: 8.138e-08 mol/L/min | solubility at 3 h (Water solubility): > 50000 µM | degradation in water (Stability in water; incubated at 5 and 20 °C for 28 days): did not exhibit any degradation | stability in water (Stability in water; room temperature (20 °C) for a month): stable | half-life (Stability in water; water, accelerated condition at 40 °C): ~27 days | appearance in water ([4]; absence of TCA, all concentrations (2.94–23.52 mmol/L)): cloudy | appearance of mixed solution ([4]; equal molar ratio of TCA versus 23.52 mmol/L α-T3DMG): white precipitation | appearance in water ([4]; presence of TCA, except 23.52 mmol/L α-T3DMG at α-T3DMG:TCA 1:0.9 and 1:1): transparent | plasma levels of α-T3DMG (ester form) relative to α-T3 ([2]; gastrostomy of α-T3DMG with TCA): 4–10% | Km [5]: 5720 µM | Vmax [5]: 0.0001395 mol/L/min | α-T3DMG levels in the n-octanol phase [6]: reached a plateau at approximately equal molar ratios of α-T3DMG and TCA | toxicity or abnormalities in rats and blood samples [7]: no toxicity or abnormalities were observed | hydrolysis in the presence of eserine [8]: completely inhibited | PDI [1, 9]: 0.542 ± 0.034 | Z-Average [1, 9]: 282.0 ± 8.9 nm | Z-Potential [1, 9]: 95.4 ± 2.5 mV | pH [1, 9]: 3.0 | PDI [1, 10]: 0.428 ± 0.014 | Z-Average [1, 10]: 12.6 ± 0.2 nm | Z-Potential [1, 10]: 48.3 ± 7.5 mV | pH [1, 10]: 3.2 | PDI [1, 11]: 0.228 ± 0.039 | Z-Average [1, 11]: 3.8 ± 1.1 nm | Z-Potential [1, 11]: 19.1 ± 12.2 mV | pH [1, 11]: 3.8 | PDI [1, 12]: 0.203 ± 0.064 | Z-Average [1, 12]: 5.3 ± 3.5 nm | Z-Potential [1, 12]: 8.70 ± 6.17 mV | pH [1, 12]: 3.8 | PDI [1, 13]: 0.161 ± 0.045 | Z-Average [1, 13]: 3.1 ± 0.0 nm | Z-Potential [1, 13]: −4.35 ± 1.99 mV | pH [1, 13]: 4.1 | PDI [1, 14]: 0.217 ± 0.009 | Z-Average [1, 14]: 4.3 ± 1.8 nm | Z-Potential [1, 14]: −0.0299 ± 0.260 mV | pH [1, 14]: 4.6 | PDI [1, 15]: 0.466 ± 0.068 | Z-Potential [1, 15]: −22.1 ± 3.37 mV | pH [1, 15]: 4.7 | Z-Average ([1]; 5.88 mmol/L α-T3DMG, TCA molar ratio 4, ambiguous data (footnote a)): 163.7 ± 84.5 ^a nm | PDI [1, 16]: 0.490 ± 0.020 | Z-Average [1, 16]: 307.8 ± 8.6 nm | pH [1, 16]: 2.7 | PDI [1, 17]: 0.336 ± 0.026 | Z-Average [1, 17]: 6.6 ± 0.1 nm | pH [1, 17]: 3.5 | pH ([1]; 23.52 mmol/L α-T3DMG, TCA molar ratio 0.9): 3.9 | PDI ([1]; 23.52 mmol/L α-T3DMG, TCA molar ratio 0.9, ambiguous data (footnote a)): 0.286 ± 0.231 ^a | Z-Average ([1]; 23.52 mmol/L α-T3DMG, TCA molar ratio 0.9, ambiguous data due to precipitation (footnote b)): 4.2 ± 0.4 ^b nm | pH ([1]; 23.52 mmol/L α-T3DMG, TCA molar ratio 1): 3.9 | PDI ([1]; 23.52 mmol/L α-T3DMG, TCA molar ratio 1, ambiguous data (footnote a)): 0.250 ± 0.179 ^a | PDI [1, 18]: 0.190 ± 0.045 | Z-Average [1, 18]: 9.2 ± 6.1 nm | pH [1, 18]: 4.4 | PDI [1, 19]: 0.219 ± 0.051 | Z-Average [1, 19]: 22.4 ± 15.1 nm | pH [1, 19]: 4.8 | PDI [1, 20]: 0.217 ± 0.005 | Z-Average [1, 20]: 23.7 ± 12.2 nm | pH [1, 20]: 4.8

CNCC(=O)Oc1c(C)c(C)c2c(c1C)CC[C@@](C)(CC/C=C(\C)CC/C=C(\C)CCC=C(C)C)O2 [α-T3MG, 2R-α-Tocotrienyl N-methylglycinate]
Km [3]: 1460 µM | Vmax [3]: 5.573e-07 mol/L/min | solubility at 3 h (Water solubility): > 50000 µM | Km [5]: 176 µM | Vmax [5]: 2.051e-06 mol/L/min | hydrolysis in the presence of eserine [8]: completely inhibited

CC(C)=CCC/C(C)=C/CC/C(C)=C/CC[C@]1(C)CCc2c(C)c(OC(=O)CCC(=O)O)c(C)c(C)c2O1 [α-T3Suc, 2R-α-Tocotrienyl acid succinate]
Km [3]: 1290 µM | Vmax [3]: 1.033e-07 mol/L/min | Km [5]: 61.6 µM | Vmax [5]: 7.426e-08 mol/L/min
